Laboratory results published in patent US8367079B2, “Liquid preservative compositions” (Rhodia Operations, priority 2008, dated 2013).

Tests used:
Type in all cases: cell-based
Candida albicans = assay: Preservative challenge test in cleanser base, plate count; details: inoculum about 1×10^5 to 1×10^6 cfu/mL, about 22° C.; for Day-7 Plate Count, CA: 7 days after challenge; for Day-14 Plate Count, CA: 14 days after challenge, TN = too numerous to count
Procedure: (§1) Several 200-gram samples of a cleanser base were admixed with a variety of preservative compositions, and challenged with selected bacteria and fungi (Escherichia coli, Pseudomonas aeruginosa, Staphylococcus aureus, Aspergillus niger, and Candida albicans) according to the following procedure:
(§2) About 0.5 mL of an aqueous suspension containing about 1×10^6 to about 2×10^7 colony forming units-per-milliliter (cfu/mL) of Aspergillus niger in a pH 7.2 phosphate buffer was transferred to a tube containing about 9.5 mL of a sample of a cleanser base composition to provide an inoculum level of about 1×10^5 to about 1×10^6 cfu/mL. The same procedure was used to challenge samples of the cleanser base with Candida albicans and with a mixed culture of Escherichia coli, Pseudomonas aeruginosa, and Staphylococcus aureus, at about the same inoculum levels. The challenged samples were stored at an ambient room temperature of about 22° C. At 7 days and 14 days after challenge, aliquots from each sample were diluted according to the following procedure: about 1 mL of each challenged sample was aseptically transferred into a tube containing about 9 mL of Dey/Engley (D/E) neutralizing broth with thorough mixing to provide a dilution ratio of about 1:10. About […] of each of the 1:10 diluted samples was then aseptically transferred into separate tubes, each tube containing about 9 mL of sterile buffered saline solution, (3.5 g/L phosphoric acid in 0.9 wt. % NaCl solution, adjusted to pH 7.2 with 50 wt. % aqueous sodium hydroxide), with thorough mixing, to provide a dilution ratio of about 1:1000.
(§3) Finally, each of the 1:10 diluted samples and each of the 1:1000 diluted samples were plated according to the following procedure: about 1 mL of each of the diluted samples was plated with Letheen agar (bacteria samples) or Sabouraud dextrose agar (yeast and mold samples). The Letheen agar plates were incubated at 35±2° C. for about 48 hours (about 2 days) in an inverted position, and the resulting microbial colonies were counted. The Sabouraud dextrose agar plates were incubated at 25±2° C. for about 120 hours (about 5 days) in an upright position and the resulting microbial colonies were counted.
(§4) The formulations of the cleanser base and the D/E Neutralizing Broth used in these evaluations are provided in Table 1 and Table 2, respectively.

Aspergillus niger = assay: as above; details: inoculum about 1×10^5 to 1×10^6 cfu/mL, about 22° C.; for Day-7 Plate Count, AN: 7 days after challenge; for Day-14 Plate Count, AN: 14 days after challenge
Procedure: as §1, §2, §3, §4

Pseudomonas aeruginosa = assay: as above; details: inoculum about 1×10^5 to 1×10^6 cfu/mL, about 22° C., TN = too numerous to count; for Day-7 Plate Count, PA: 7 days after challenge; for Day-14 Plate Count, PA: 14 days after challenge
Procedure: as §1, §2, §3, §4

Staphylococcus aureus = assay: as above; details: inoculum about 1×10^5 to 1×10^6 cfu/mL, about 22° C.; for Day-7 Plate Count, SA: 7 days after challenge; for Day-14 Plate Count, SA: 14 days after challenge
Procedure: as §1, §2, §3, §4

Escherichia coli = assay: as above; details: inoculum about 1×10^5 to 1×10^6 cfu/mL, about 22° C., TN = too numerous to count; for Day-7 Plate Count, EC: 7 days after challenge; for Day-14 Plate Count, EC: 14 days after challenge
Procedure: as §1, §2, §3, §4

A. niger 16404 = assay: Minimum Inhibitory Concentration (MIC) evaluation, broth dilution; details: Mueller-Hinton broth, two-fold dilutions, about 35° C. for about 24 hours, visible growth
Procedure: (§5) In this evaluation, nutrient broth solutions were made with different concentrations of the test compounds, and then all the solutions were spiked with the same concentration of test organism. Growth was indicated by a solution becoming hazy after 24 hours of incubation time. The highest dilution without observable growth is the Minimal Inhibitory Concentration (MIC).
(§6) The following procedure was adopted from the Manual of Clinical Microbiology, 2nd Ed. published by the American Society for Microbiology, ISBN 0-914826-00-X.
(§7) Prepare and sterilize Mueller-Hinton Broth (MH broth) (Fluka) per the manufacturer's instructions (dissolve 23 grams in one liter water and autoclave at 121° C. for 15 minutes minimum).
(§8) The stock antimicrobial solution is diluted (in MH broth) to twice the highest final test concentration desired. Sterile 13×100 mm screw-capped culture tubes are used. Two-fold dilutions are made directly in the tubes. To the first tube is added 2 mL of the working solution of antimicrobial agent. To each remaining tube is added 1 mL of broth. Using aseptic technique, an amount of 1 mL is transferred from the first tube to the second tube and is thoroughly mixed. After thorough mixing, 1 mL is transferred from the second tube to the third tube. This process is repeated through the second to last tube, from which 1 mL is removed and discarded. The final tube receives no antimicrobial agent and serves as a growth control.
(§9) Buffered saline (3.5 g/L phosphoric acid in a 0.9% NaCl solution, pH adjusted to 7.2 with 50 wt. % aqueous NaOH, sterilized by autoclave).
(§10) The organisms are preferably lyophilized Microbiologics E^power E7 microorganisms (mean assay value of between 10 million and 100 million colony forming units or equivalent concentration). The final concentrations of the microorganism in the inoculum should be in the order of 10^6-10^7 cfu/mL.
(§11) 1. Allow unopened vial of microorganism pellets to equilibrate to room temperature.
(§12) 2. Warm 1 tube of 10 mL buffered saline per organism used to about 35-37° C.
(§13) 3. Using sterile forceps, transfer 2 pellets to the saline and return unused pellets to storage.
(§14) 4. Incubate the hydrated material at about 35-37° C. for about 30 minutes.
(§15) 5. Vortex the vials until homogeneous.
(§16) 6. Add 1.0 ml of the diluted culture suspension to each of the previously prepared tubes containing the preservative compositions. The final concentration of preservative is now one-half of the original concentration in each tube.
(§17) All tubes were incubated at about 35° C. for about 24 hours. The tubes were then examined for visible signs of bacterial growth.
(§18) The MIC values from Table 5 were then used to calculate the Fractional Inhibitory Concentration Index (FICI) (sometimes called the Synergy Index) of GCM and GCP versus the various individual test organisms using the following equation. FICI=(MICa/MICA)+(MICb/MICB)

S. aureus 6538 = assay: as above; details: Mueller-Hinton broth, two-fold dilutions, about 35° C. for about 24 hours, visible growth
Procedure: as §5, §6, §7, §8, §9, §10, §11, §12, §13, §14, §15, §16, §17, §18

P. aeruginosa 9027 = assay: as above; details: Mueller-Hinton broth, two-fold dilutions, about 35° C. for about 24 hours, visible growth
Procedure: as §5, §6, §7, §8, §9, §10, §11, §12, §13, §14, §15, §16, §17, §18

| SMILES | Day-7 Plate Count, CA (Candida albicans) | Day-14 Plate Count, CA (Candida albicans) | Day-7 Plate Count, AN (Aspergillus niger) | Day-14 Plate Count, AN (Aspergillus niger) | Day-7 Plate Count, PA (Pseudomonas aeruginosa) | Day-14 Plate Count, PA (Pseudomonas aeruginosa) | Day-7 Plate Count, SA (Staphylococcus aureus) | Day-14 Plate Count, SA (Staphylococcus aureus) | Day-7 Plate Count, EC (Escherichia coli) | Day-14 Plate Count, EC (Escherichia coli) | MIC Values, A. niger (A. niger 16404) | MIC Values, S. aureus (S. aureus 6538) | MIC Values, P. aeruginosa (P. aeruginosa 9027) |
| --- | --- | --- | --- | --- | --- | --- | --- | --- | --- | --- | --- | --- | --- |
| Cn1sccc1=O [Ex. B, 2-methyl-4-isothiazolin-3-one] | 10500 cfu | 15000 cfu | 1000 cfu | 500 cfu | 115 cfu | <10 cfu | 215 cfu | 6500 cfu | 155 cfu | 10 cfu |  |  |  |
| CCCCCCCC(=O)OCC(O)CO (centres unmarked) [Ex. C, glyceryl caprylate] | 500 cfu | 485 cfu | 1000 cfu | 280 cfu | 7500 cfu | 117500 cfu | <10 cfu | 1000 cfu | 15 cfu | 10 cfu |  |  |  |
| OCCc1ccccc1 [Ex. D, phenethyl alcohol] | 91000 cfu | 2000 cfu | 25 cfu | <10 cfu | 10 cfu | 1000 cfu | 7500 cfu | 1000 cfu | 380 cfu | 1000 cfu |  |  |  |
| O=C([O-])c1ccccc1.[Na+] [Ex. E, sodium benzoate] | 336500 cfu |  | 1500 cfu | 3500 cfu |  |  | 9000 cfu | 500 cfu |  |  |  |  |  |
| CCCCCCCC(=O)OCC(O)CO (centres unmarked) [GC, glyceryl caprylate] |  |  |  |  |  |  |  |  |  |  | 2.0% | 1.0% | 1.0% |
| Cn1sccc1=O [MI, 2-methyl-4-isothiazolin-3-one] |  |  |  |  |  |  |  |  |  |  | 0.1% | 0.1% | 0.008% |
| OCCc1ccccc1 [PEA, phenethyl alcohol] |  |  |  |  |  |  |  |  |  |  | 1.0% | 0.9% | 0.9% |
